Experimental data from the supplement of paper PMC10307832.

Assays:
Experiment in all cases: relative viability (nuclei count vs DMSO), 5 days (fraction); higher = more cells survive
[1] = compound: CC(C)N(CCCNC(=O)Nc1ccc(C(C)(C)C)cc1)C[C@H]1O[C@@H](n2ccc3c(N)ncnc32)[C@H](O)[C@@H]1O + COc1cc2c(Oc3ccc(NC(=O)C4(C(=O)Nc5ccc(F)cc5)CC4)cc3F)ccnc2cc1OCCCN1CCOCC1 [Foretinib] (partner 0.25 µM)
Outline: (§1)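 Lung cancer cell lines were seeded in 1536-well plates and dosed by pin tool the next day, with either a single drug or a fixed anchor-drug dose combined with five library-drug doses (not always all listed) spaced in √10 steps. Five days later, one step fixed the cells and stained their nuclei (final 0.05% Triton X-100, 1% formaldehyde, 1 ug/ml Hoechst), and nuclei were counted on 4× images. Relative viability is the nuclei count in treated wells divided by the count in vehicle wells, and each value is the median of duplicate plates.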

[2] = compound: CC(C)=CC[C@@H](O)C1=CC(=O)c2c(O)ccc(O)c2C1=O [Shikonin] + Cc1nc(NC(=O)N2CCC[C@H]2C(N)=O)sc1-c1ccnc(C(C)(C)C(F)(F)F)c1 [Alpelisib] (partner 2 µM)
Outline: as §1

[3] = compound: CC(C)N(CCCNC(=O)Nc1ccc(C(C)(C)C)cc1)C[C@H]1O[C@@H](n2ccc3c(N)ncnc32)[C@H](O)[C@@H]1O + N=C(N)NC(=N)NCCc1ccccc1 [Phenformin] (partner 250 µM)
Outline: as §1

[4] = compound: CC(C)=CC[C@@H](O)C1=CC(=O)c2c(O)ccc(O)c2C1=O [Shikonin] + Cc1nc(Nc2ncc(C(=O)Nc3c(C)cccc3Cl)s2)cc(N2CCN(CCO)CC2)n1 [Dasatinib] (partner 0.075 µM)
Outline: as §1

Row | Cell Line | relative viability ([1]; first compound 0.08 µM) | relative viability ([1]; first compound 0.253 µM) | relative viability ([1]; first compound 0.8 µM) | relative viability ([1]; first compound 2.53 µM) | relative viability ([1]; first compound 8 µM) | relative viability ([2]; first compound 0.01 µM) | relative viability ([2]; first compound 0.1 µM) | relative viability ([2]; first compound 0.3162 µM) | relative viability ([2]; first compound 1 µM) | relative viability ([3]; first compound 0.08 µM) | relative viability ([3]; first compound 0.253 µM) | relative viability ([3]; first compound 0.8 µM) | relative viability ([3]; first compound 2.53 µM) | relative viability ([3]; first compound 8 µM) | relative viability ([4]; first compound 0.01 µM) | relative viability ([4]; first compound 0.1 µM) | relative viability ([4]; first compound 0.3162 µM) | relative viability ([4]; first compound 1 µM)
1 | EBC-1 | 0.108 | 0.098 | 0.1 | 0.0973 | 0.121 | 0.829 | 0.809 | 0.85 | 0.843 | – | – | – | – | – | – | – | – | –
2 | EKVX | 0.787 | 0.793 | 0.804 | 0.801 | 0.665 | 0.863 | 0.973 | 1.07 | 0.846 | 0.229 | 0.241 | 0.223 | 0.228 | 0.202 | 0.554 | 0.442 | 0.5 | 0.618
3 | EMC-BAC-2 | 0.975 | 0.98 | 1.04 | 1.09 | 0.935 | 0.77 | 0.803 | 0.78 | 0.747 | 0.564 | 0.581 | 0.565 | 0.543 | 0.449 | 0.301 | 0.322 | 0.375 | 0.298
4 | EPLC-272H | 0.688 | 0.469 | 0.73 | 0.845 | 0.669 | 0.964 | 1.06 | 0.946 | 0.962 | 0.286 | 0.271 | 0.32 | 0.296 | 0.298 | 0.34 | 0.322 | 0.315 | 0.398
5 | H3255 | 0.92 | 0.881 | 0.897 | 0.797 | 0.792 | 0.637 | 0.721 | 0.629 | 0.689 | 0.375 | 0.365 | 0.371 | 0.416 | 0.372 | 0.285 | 0.331 | 0.325 | 0.348
6 | HARA | 0.751 | 0.878 | 0.756 | 0.6 | 0.738 | 0.871 | 0.871 | 0.923 | 0.917 | 0.458 | 0.413 | 0.388 | 0.425 | 0.363 | 0.239 | 0.281 | 0.299 | 0.28
7 | HCC-15 | 0.948 | 1.04 | 1.11 | 0.998 | 0.981 | 0.881 | 0.949 | 1.04 | 0.912 | 0.466 | 0.483 | 0.431 | 0.423 | 0.407 | 0.637 | 0.799 | 0.66 | 0.65
8 | HCC-44 | – | – | – | – | – | 0.972 | 0.849 | 0.933 | 0.852 | 0.142 | 0.155 | 0.232 | 0.219 | 0.125 | – | – | – | –
9 | HCC-78 | 0.509 | 0.497 | 0.5 | 0.524 | 0.602 | 0.311 | 0.347 | 0.352 | 0.349 | 0.804 | 0.611 | 0.682 | 0.641 | 0.717 | 0.39 | 0.464 | 0.363 | 0.417
10 | HCC-366 | 0.89 | 0.939 | 0.975 | 0.9 | 0.867 | 0.329 | 0.347 | 0.423 | 0.379 | 0.625 | 0.627 | 0.754 | 0.588 | 0.53 | 0.629 | 1.12 | 0.673 | 0.706
